Literature values in patent US12421243B2, “Pharmaceutically effective compounds inhibiting selectively the myosin 2 isoforms” (PRINTNET KERESKEDELMI ÉS SZOLGÁLTATÓ KFT., priority 2018, dated 2025).

Tests used:
[1] = tested on: myosin 1, myosin 5, and myosin 10; conditions: cited from earlier work
myosin 2 = myosin 2 inhibitors, review data; cited from earlier work
skeletal muscle myosin 2 = conditions: selectivity among myosin 2 isoforms; cited from earlier work
platelet myosin 2 = platelet myosin 2 (Homo sapiens, UniProt P35579); conditions: cited from earlier work
Chain of platelet myosin 2 (P35579 whole entry): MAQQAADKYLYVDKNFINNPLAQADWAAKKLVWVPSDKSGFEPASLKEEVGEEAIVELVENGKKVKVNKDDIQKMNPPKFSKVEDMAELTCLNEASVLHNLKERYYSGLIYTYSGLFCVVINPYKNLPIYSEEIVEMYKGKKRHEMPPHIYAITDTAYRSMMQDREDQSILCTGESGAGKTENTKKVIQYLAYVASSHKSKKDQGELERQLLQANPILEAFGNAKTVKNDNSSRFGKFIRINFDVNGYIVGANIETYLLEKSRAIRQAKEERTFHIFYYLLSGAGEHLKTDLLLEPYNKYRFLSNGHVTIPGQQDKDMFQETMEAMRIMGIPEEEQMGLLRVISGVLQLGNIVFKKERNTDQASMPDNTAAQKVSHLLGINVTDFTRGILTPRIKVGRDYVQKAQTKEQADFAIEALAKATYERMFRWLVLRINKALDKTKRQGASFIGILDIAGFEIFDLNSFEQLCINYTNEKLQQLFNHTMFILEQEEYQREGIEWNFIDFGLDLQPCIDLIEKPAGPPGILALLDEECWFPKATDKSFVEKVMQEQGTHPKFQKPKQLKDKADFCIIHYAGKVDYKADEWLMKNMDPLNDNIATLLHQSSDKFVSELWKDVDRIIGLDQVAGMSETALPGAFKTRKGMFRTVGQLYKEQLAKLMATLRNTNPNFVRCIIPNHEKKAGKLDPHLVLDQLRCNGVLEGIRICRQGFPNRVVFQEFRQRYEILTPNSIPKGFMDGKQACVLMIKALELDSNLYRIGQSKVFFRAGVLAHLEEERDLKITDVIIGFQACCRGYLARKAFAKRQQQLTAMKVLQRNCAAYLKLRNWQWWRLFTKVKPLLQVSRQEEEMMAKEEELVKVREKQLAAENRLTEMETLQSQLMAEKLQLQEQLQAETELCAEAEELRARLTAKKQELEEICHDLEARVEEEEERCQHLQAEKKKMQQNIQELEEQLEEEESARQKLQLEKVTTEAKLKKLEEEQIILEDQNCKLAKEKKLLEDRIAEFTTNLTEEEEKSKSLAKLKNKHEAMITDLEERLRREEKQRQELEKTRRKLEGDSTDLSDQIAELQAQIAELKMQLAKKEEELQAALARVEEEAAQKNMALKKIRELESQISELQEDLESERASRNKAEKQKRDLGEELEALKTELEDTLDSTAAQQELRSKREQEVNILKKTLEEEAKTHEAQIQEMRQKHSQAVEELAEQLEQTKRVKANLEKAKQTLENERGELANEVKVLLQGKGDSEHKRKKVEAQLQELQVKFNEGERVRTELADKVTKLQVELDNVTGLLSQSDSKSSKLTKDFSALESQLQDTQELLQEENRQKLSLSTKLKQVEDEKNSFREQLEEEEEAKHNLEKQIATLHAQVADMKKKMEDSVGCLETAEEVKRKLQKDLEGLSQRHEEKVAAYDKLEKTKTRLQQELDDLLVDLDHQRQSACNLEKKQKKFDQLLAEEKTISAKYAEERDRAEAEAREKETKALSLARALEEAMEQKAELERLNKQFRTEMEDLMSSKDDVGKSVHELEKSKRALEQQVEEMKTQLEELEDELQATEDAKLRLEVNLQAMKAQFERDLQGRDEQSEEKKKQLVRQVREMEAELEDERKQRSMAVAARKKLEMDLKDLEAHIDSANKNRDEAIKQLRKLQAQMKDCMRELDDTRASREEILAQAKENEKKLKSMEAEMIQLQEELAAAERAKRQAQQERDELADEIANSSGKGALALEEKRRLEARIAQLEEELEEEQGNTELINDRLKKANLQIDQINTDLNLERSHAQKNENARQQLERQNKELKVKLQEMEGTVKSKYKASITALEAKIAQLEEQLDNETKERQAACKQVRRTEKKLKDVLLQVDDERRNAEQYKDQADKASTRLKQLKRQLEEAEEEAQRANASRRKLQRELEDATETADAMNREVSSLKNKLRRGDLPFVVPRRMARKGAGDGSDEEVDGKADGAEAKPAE

Cc1ccc2c(c1)C(=O)[C@]1(O)CCN(c3ccccc3)C1=N2 [blebbistatin]
inhibition of myosin 1, myosin 5, and myosin 10 [1]: does not inhibit

Cc1ccc(S(=O)(=O)NCc2ccccc2)cc1 [BTS, N-Benzyl-p-toluenesulfonamide]
Binding strength (myosin 2): ~5 µM | inhibits fast muscle skeletal myosin-2 times more stronger than slow skeletal muscle myosin-2, myocardial myosin-2 or non-muscle myosin 2 (skeletal muscle myosin 2): 100 times | inhibition of platelet myosin 2 (platelet myosin 2): does not inhibit
